This is an account of results in ChEMBL document CHEMBL5518225, “Mechanism-Based Macrocyclic Inhibitors of Serine Proteases” (J Med Chem, 2024).

Data set [1] deals with Transmembrane protease serine 2 (Homo sapiens, UniProt O15393). As to the kind of experiment: Inhibition of N-terminal 6His-tagged human recombinant TMPRSS2 (106 to 492 residues) using Boc-QAR-AMC as substrate preincubated for 30 mins followed by substrate addition and measured by fluorescence based analysis.
Data set [2] concerns the target T1, Hepatocyte growth factor activator serine protease (Homo sapiens, UniProt Q04756).
T1 sequence (Q04756 whole entry): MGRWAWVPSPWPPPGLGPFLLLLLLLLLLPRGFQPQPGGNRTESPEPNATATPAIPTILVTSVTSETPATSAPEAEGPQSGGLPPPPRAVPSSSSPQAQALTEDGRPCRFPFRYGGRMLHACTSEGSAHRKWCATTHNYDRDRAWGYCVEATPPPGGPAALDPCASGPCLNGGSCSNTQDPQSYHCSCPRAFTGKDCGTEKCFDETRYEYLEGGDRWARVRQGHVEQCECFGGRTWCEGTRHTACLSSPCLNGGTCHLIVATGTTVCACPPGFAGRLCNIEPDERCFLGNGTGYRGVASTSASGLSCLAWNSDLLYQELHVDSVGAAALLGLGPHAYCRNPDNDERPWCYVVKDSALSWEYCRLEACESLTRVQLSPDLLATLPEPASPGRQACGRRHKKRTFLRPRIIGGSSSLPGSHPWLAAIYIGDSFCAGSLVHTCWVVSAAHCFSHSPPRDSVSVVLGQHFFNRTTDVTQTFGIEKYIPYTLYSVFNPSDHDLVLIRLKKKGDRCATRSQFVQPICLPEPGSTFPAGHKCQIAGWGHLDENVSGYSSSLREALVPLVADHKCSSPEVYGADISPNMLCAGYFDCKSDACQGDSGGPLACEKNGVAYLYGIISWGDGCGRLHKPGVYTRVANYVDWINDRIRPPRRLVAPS
As to the kind of experiment: Inhibition of C-terminal 10-His tagged human recombinant HGFA (Gln36 to Ser655 residues) using Boc-QLR-AMC as substrate preincubated for 30 mins followed by substrate addition and measured by fluorescence based analysis.

Data set [3] is described as follows: Metabolic stability in human plasma assessed as compound remaining measured at 2 hrs. It is filed as ADME, cell-free. The conditions noted are these: read-out: Stability.
Data set [4] is described as follows: Metabolic stability in mouse plasma assessed as half life. It is filed as ADME, cell-free.
A short description of data set [5]: Metabolic stability in human plasma assessed as half life. The class given is ADME, cell-free.
The target of data set [6] is T2, Suppressor of tumorigenicity 14 protein (Homo sapiens, UniProt Q9Y5Y6).
T2 sequence (Q9Y5Y6 whole entry): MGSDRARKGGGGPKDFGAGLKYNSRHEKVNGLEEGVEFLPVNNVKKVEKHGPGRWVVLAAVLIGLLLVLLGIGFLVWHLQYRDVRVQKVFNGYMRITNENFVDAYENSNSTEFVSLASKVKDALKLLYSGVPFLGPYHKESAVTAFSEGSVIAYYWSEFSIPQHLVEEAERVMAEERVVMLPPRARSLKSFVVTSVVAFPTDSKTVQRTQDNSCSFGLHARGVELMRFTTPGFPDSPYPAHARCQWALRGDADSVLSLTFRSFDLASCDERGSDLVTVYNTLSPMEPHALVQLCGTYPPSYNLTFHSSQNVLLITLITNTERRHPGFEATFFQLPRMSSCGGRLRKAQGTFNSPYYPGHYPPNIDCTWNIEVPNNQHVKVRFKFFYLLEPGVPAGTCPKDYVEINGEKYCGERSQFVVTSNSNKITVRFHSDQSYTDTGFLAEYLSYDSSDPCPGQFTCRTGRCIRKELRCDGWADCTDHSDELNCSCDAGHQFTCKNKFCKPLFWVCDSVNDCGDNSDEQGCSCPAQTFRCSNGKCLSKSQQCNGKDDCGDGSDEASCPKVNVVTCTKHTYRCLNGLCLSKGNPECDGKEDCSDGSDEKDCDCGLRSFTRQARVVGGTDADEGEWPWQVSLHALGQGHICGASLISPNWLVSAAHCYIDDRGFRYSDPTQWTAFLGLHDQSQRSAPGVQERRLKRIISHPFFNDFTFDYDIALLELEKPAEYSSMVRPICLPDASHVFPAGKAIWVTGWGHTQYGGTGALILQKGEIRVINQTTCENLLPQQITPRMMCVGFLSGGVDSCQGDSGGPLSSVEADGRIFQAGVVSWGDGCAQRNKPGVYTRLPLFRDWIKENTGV
As to the kind of experiment: Inhibition of N-terminal Met/6His tagged human recombinant matriptase catalytic domain (Gly596 to Val855 residues) using Boc-QAR-AMC as substrate preincubated for 30 mins followed by substrate addition and measured by fluorescence based analysis.

Data set [7] in a line: Metabolic stability in mouse plasma assessed as compound remaining measured at 2 hrs. It is filed as ADME, cell-free. To be noted: read-out: Stability.
Data set [8] in a line: Elimination half life in male CD-1 mouse at 13 to 20 mg/kg, ip administered as single dose and measured upto 24 hrs by LC-MS/MS analysis. The class given is ADME, organism-based. To be noted: in vivo, dose 13-20 mg/kg.
The target in data set [9] is Coagulation factor X, Homo sapiens (UniProt P00742). As to the kind of experiment: Inhibition of factor Xa (unknown origin) using Bz-lle-Glu-Gly-Arg-pNA as chromogenic substrate preincubated for 30 mins followed by substrate addition by absorbance based analysis.
Data set [10] in a line: Metabolic stability in mouse plasma assessed as drug degradation measured after 2 hrs. The class given is ADME, cell-free.
The species entered for data set [11] is Homo sapiens. As to the kind of experiment: Selectivity index, ratio of IC50 for inhibition of C-terminal 10-His tagged human recombinant HGFA (Gln36 to Ser655 residues) to IC50 for inhibition of N-terminal 6His-tagged human recombinant TMPRSS2 (106 to 492 residues).
For data set [12], the species on record is Homo sapiens. As to the kind of experiment: Selectivity index, ratio of IC50 for inhibition of N-terminal Met/6His tagged human recombinant matriptase catalytic domain (Gly596 to Val855 residues) to IC50 for inhibition of N-terminal 6His-tagged human recombinant TMPRSS2 (106 to 492 residues).
The next data set has as its target Serine protease hepsin (Homo sapiens, UniProt P05981). As to the kind of experiment: Inhibition of C-terminal 10-His tagged human recombinant hepsin (Arg45 to Leu417 residues) using Boc-QAR-AMC as substrate preincubated for 30 mins followed by substrate addition and measured by fluorescence based analysis.
Data set [13] is filed under the species Homo sapiens. The data set is described as follows: Selectivity index, ratio of IC50 for inhibition of C-terminal 10-His tagged human recombinant hepsin (Arg45 to Leu417 residues) to IC50 for inhibition of N-terminal 6His-tagged human recombinant TMPRSS2 (106 to 492 residues).
A short description of data set [14]: Half life in male CD-1 mouse at 13 to 20 mg/kg, ip administered as single dose and measured upto 24 hrs by LC-MS/MS analysis. To be noted: in vivo, dose 13-20 mg/kg. The class given is ADME, organism-based.
The nature of data set [15]: Drug uptake in male CD-1 mouse at 13 to 20 mg/kg, ip administered as single dose and measured upto 24 hrs by LC-MS/MS analysis. It is filed as ADME, organism-based. To be noted: in vivo, dose 13-20 mg/kg.

For the compound `CC(=O)N[C@H]1Cc2cccc(c2)Oc2ccc(cc2)C[C@@H](C(=O)N[C@@H](CCCNC(=N)N)C(=O)c2nc3ccccc3s2)NC(=O)[C@H](CC(C)C)NC1=O`, in data set [1], the IC50 (as a rule, the concentration that gives 50% inhibition) is 15 nM.

For the compound `CC(=O)N[C@H]1Cc2ccc(cc2)OC/C=C/C[C@@H](C(=O)N[C@@H](CCCNC(=N)N)C(=O)c2nc3ccccc3s2)NC(=O)[C@H](CC(C)C)NC1=O`, the IC50 was 26 nM in data set [2], 1.2 nM in data set [1], 3.4 nM in [6] and above 20000 nM in [9]. The remaining at 2 h in data set [3] is 77%; in data set [7], 86%. The t1/2 in data set [4] and in [5] was above 4.82 h each time. The “beta t1/2” value in data set [8] was below 0.5 h.

For the compound `CC(=O)N[C@H]1Cc2ccc(cc2)OC/C=C\CNC(=O)C[C@@H](C(=O)N[C@@H](CCCNC(=N)N)C(=O)c2nc3ccccc3s2)NC(=O)[C@H](CC(C)C)NC1=O`, the remaining at 2 h in data set [3] is 81%; in data set [7] it was 95%. Moreover, the t1/2 in [4] and in [5] was above 4.82 h throughout. For the same compound, the IC50 in data set [1] was 22 nM; in data set [6] it was 54 nM; in data set [9], above 20000 nM. For the same compound, the Stability entry in data set [10] is given as “Stable”.

As for `CC(=O)N[C@H]1CCCCn2cc(nn2)C[C@H](C(=O)N[C@@H](CCCNC(=N)N)C(=O)c2nc3ccccc3s2)NC(=O)[C@H](CC(C)C)NC1=O`, the remaining at 2 h in data set [3] worked out at 83%; in data set [7] it was 82%. The t1/2 in [4] and in data set [5] was above 4.82 h each time.

Regarding `CC(=O)N[C@H]1Cc2ccc(cc2)Oc2ccc(cc2)C[C@@H](C(=O)N[C@@H](CCCNC(=N)N)C(=O)c2nc3ccccc3s2)NC(=O)[C@H](CC(C)C)NC1=O`, the IC50 amounted to 250 nM in data set [2], 1.2 nM in [1], 180 nM in data set [6] and 7.5 nM at Serine protease hepsin. Also, the Ratio IC50 in the data set filed under Homo sapiens [11] came out at 200; in the data set listed under Homo sapiens [12], 144; in the data set filed under Homo sapiens [13], 6.

As for `CC(=O)N[C@H]1Cc2ccc(cc2)OCCCC[C@@H](C(=O)N[C@@H](CCCNC(=N)N)C(=O)c2nc3ccccc3s2)NC(=O)[C@H](Cc2ccccc2)NC1=O`, the figures for the remaining at 2 h in [3] and in [7] were 65% and 80%, respectively. The t1/2 in data set [4] was above 4.82 h; in data set [5], 3.15 h. Further, the IC50 in [1] was found to be 16 nM.

In the case of `CC(=O)N[C@H]1Cc2ccc(cc2)OC/C=C\CNC(=O)CC[C@@H](C(=O)N[C@@H](CCCNC(=N)N)C(=O)c2nc3ccccc3s2)NC(=O)[C@H](CC(C)C)NC1=O`, the values for the remaining at 2 h in [3] and in [7] were 76% and 66%, respectively. Also, the t1/2 in [4] is 3.93 h; in [5] it was above 4.82 h. Moreover, the IC50 in [9] was above 20000 nM.

On to `CC(=O)N[C@H]1Cc2cn(nn2)CCCC[C@H](C(=O)N[C@@H](CCCNC(=N)N)C(=O)c2nc3ccccc3s2)NC(=O)[C@H](CC(C)C)NC1=O`, for which the remaining at 2 h came to 85% in data set [3] and 83% in [7]. Further, the t1/2 in data set [4] and in [5] was above 4.82 h throughout.

With `CC(=O)N[C@H]1Cc2ccc(cc2)OCCCC[C@@H](C(=O)N[C@@H](CCCNC(=N)N)C(=O)c2nc3ccccc3s2)NC(=O)[C@H](CC(C)C)NC1=O`, the remaining at 2 h was determined as 79% in data set [3] and 98% in [7]. Moreover, the t1/2 in data set [4] and in data set [5] was above 4.82 h each time. Further, the Stability entry in [10] was “Stable”.

`CC(=O)N[C@H]1Cc2ccc(cc2)OCCCC[C@@H](C(=O)N[C@@H](CCCNC(=N)N)C(=O)c2nc3ccccc3s2)NC(=O)[C@@H](Cc2c[nH]c3ccccc23)NC1=O`: the results for the remaining at 2 h in [3] and in [7] were 53% and 100%, respectively. Further, in [1], the IC50 was found to be 3.7 nM. Besides, the t1/2 in data set [5] worked out at 1.95 h. For the same compound, the Stability result in data set [10] was “Stable”.

With `CC(=O)N[C@H]1Cc2ccc(cc2)OCCCC[C@@H](C(=O)N[C@@H](CCCNC(=N)N)C(=O)c2nc3ccccc3s2)NC(=O)[C@H](Cc2c[nH]c3ccccc23)NC1=O`, the values for the remaining at 2 h in data set [3] and in [7] were 67% and 78%, respectively. Besides, the values for the t1/2 in data set [4] and in data set [5] were above 4.82 h and 3.82 h, respectively. For the same compound, on Serine protease hepsin, the IC50 is 2.8 nM.

As for `CC(=O)N[C@H]1Cc2ccc(cc2)Oc2cccc(c2)C[C@@H](C(=O)N[C@@H](CCCNC(=N)N)C(=O)c2nc3ccccc3s2)NC(=O)[C@H](CC(C)C)NC1=O`, in data set [14], the t1/2 stood at 4.5 h. Also, the half-maximal inhibitory concentration (IC50) in [9] stood at 13000 nM; on Serine protease hepsin, 0.2 nM. The Drug uptake entry in data set [15] is given as “Active”.

Regarding `CC(=O)N[C@H]1C/C=C/COc2ccc(cc2)C[C@@H](C(=O)N[C@@H](CCCNC(=N)N)C(=O)c2nc3ccccc3s2)NC(=O)[C@H](CC(C)C)NC1=O`, the IC50 was above 20000 nM in [2]; 14 nM in data set [1]; 14 nM in data set [6]; above 20000 nM in data set [9]; 20 nM on Serine protease hepsin. Moreover, the remaining at 2 h in data set [3] was 78%; in [7], 84%. In addition, the t1/2 in data set [4] is above 4.82 h; in data set [5], 4.77 h.
